Among the data in ChEMBL document CHEMBL1149841, “Synaptosides A and A1, triterpene glycosides from the sea cucumber Synapta maculata containing 3-O-methylglucuronic acid and their cytotoxic activity against tumor cells” (J Nat Prod, 2008) are IC50 and Activity values, retold here.

Calls of active or inactive are those of the source. The calls are words filed in the database; no cut-off is given here.

Assay [1] relates to HeLa. Kind of assay: Cytotoxicity against human HeLa cells after 12 hrs by MTS reduction assay. Type of assay: functional, cell-based. (Tetrazolium assays rely on reduction of a dye to a coloured formazan, in cell work by metabolically active cells.)
Assay [2] concerns HeLa. Kind of assay: Cytotoxicity against human HeLa cells after 12 hrs at 14.1 ug/ml by MTS reduction assay. Format: functional, cell-based.

As for `CO[C@@H]1[C@@H](O)[C@H](O[C@@H]2[C@@H](O)[C@H](O[C@H]3[C@H](O)[C@@H](O)[C@H](O[C@H]4[C@H](O[C@H]5CC[C@]6(C)[C@@H]7CC[C@]89C(=O)O[C@@](C)(CC(=O)CC(C)C)[C@H]8CC[C@@]9(C)C7=CC[C@H]6C5(C)C)OC[C@@H](O[C@@H]5O[C@H](COS(=O)(=O)[O-])[C@@H](O)[C@H](O)[C@H]5O)[C@@H]4O)O[C@@H]3C)O[C@H](CO)[C@H]2O)O[C@H](C(=O)[O-])[C@H]1O.[Na+].[Na+]` [SYNAPTOSIDE A], it took 8.6 µg/mL to reach half-maximal inhibition in assay [1] (IC50).

Take `CO[C@@H]1[C@@H](O)[C@H](O[C@@H]2[C@@H](O)[C@H](O[C@H]3[C@H](O)[C@@H](O)[C@H](O[C@H]4[C@H](O[C@H]5CC[C@]6(C)C7=C(C(=O)C[C@H]6C5(C)C)[C@]5(C)CC[C@H]6[C@]5(CC7)C(=O)O[C@@]6(C)CC(=O)CC(C)C)OC[C@@H](O[C@@H]5O[C@H](COS(=O)(=O)O)[C@@H](O)[C@H](O)[C@H]5O)[C@@H]4O)O[C@@H]3C)O[C@H](CO)[C@H]2O)O[C@H](C(=O)O)[C@H]1O`: the result in assay [2] was inactive.

The term IC50 denotes the concentration that inhibits the measured activity by half. A lower IC50 goes with higher potency.
